This passage reports TGI results from PubChem BioAssay (NCI).

Test systems include HOP-62 NSCLC; SR leukemia; NCI-H23 lung; HCC-2998 colon; RXF 393 renal; MDA-MB-231 breast; OVCAR-3 ovarian; KM12 colon; SF-268 CNS; NCI-H226 lung; MALME-3M melanoma; NCI/ADR-RES ovarian; OVCAR-8 ovarian; HS 578T breast; NCI-H522 lung.
Common to all, as to assay: NCI anticancer screen, dose series, 48 h

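Growth conditions: 96-well plates. Treatment: test compound, 48 hours, 5 concentrations. Analysis: linear interpolation between bracketing concentrations; unreached endpoints set to highest concentration. TGI marks complete inhibition of growth.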

As for `Cc1cc(C)c(/C=C(\C(=C/c2c(C)cc(C)cc2C)[N+](=O)[O-])[N+](=O)[O-])c(C)c1`, the TGI was more than 100 µM in the assay with HOP-62 NSCLC; more than 100 µM with SR leukemia; more than 100 µM with NCI-H23 lung; more than 100 µM in the assay on HCC-2998 colon; 90.4 µM in the assay with RXF 393 renal; more than 100 µM in the assay with MDA-MB-231 breast. In addition, the TGI in the assay with OVCAR-3 ovarian and in the assay on KM12 colon was more than 100 µM each time.
With `O=S1(=O)C[C@@H](NCc2ccccc2)[C@H](NCc2ccccc2)C1`, the TGI with HOP-62 NSCLC, in the assay with SF-268 CNS, in the assay on SR leukemia, in the assay with NCI-H226 lung, in the assay on MALME-3M melanoma and with NCI-H23 lung was more than 100 µM each time. Also, the TGI in the assay with HCC-2998 colon, in the assay with NCI/ADR-RES ovarian, in the assay on RXF 393 renal, with MDA-MB-231 breast, in the assay on OVCAR-8 ovarian and in the assay on HS 578T breast was more than 100 µM throughout. Also, the TGI in the assay on NCI-H522 lung, with OVCAR-3 ovarian and in the assay on KM12 colon was more than 100 µM each time.
